Measured values as given in patent US20100298141A1, “SUBSTITUTED PYRIDINE N-OXIDE HERBICIDES” (E. I. DU PONT DE NEMOURS AND COMPANY, priority 2007, published 2010).

Experiments:
[1] = test system: corn; assay: Test A pre-/postemergence greenhouse test; format: in vivo, Zea mays; conditions: for Plant response rating, Corn: 0 to 100 scale where 0 is no effect and 100 is complete control; for Corn plant response rating: 0 to 100 scale
In short: (§1)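 Seeds sown in a loam soil–sand blend got a preemergence directed soil spray of compound in a non-phytotoxic solvent mixture containing surfactant. Postemergence sprays of the same formulation went at the same time onto plants 2–10 cm tall at the one- to two-leaf stage. Injury was scored visually against untreated controls after about ten days in the greenhouse.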

[2] = test system: pigweed; assay: Test C pre-/postemergence test; format: in vivo, Amaranthus retroflexus
In short: (§2)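 Compounds in a non-phytotoxic solvent with surfactant applied preemergence to seeded pots and, at the same time, postemergence to plants 2–18 cm tall (1- to 4-leaf stage). Paddy tests: pots flooded to 3 cm, compound applied into the water, depth held throughout.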

[3] = test system: rice; assay: Test C flooded paddy test; format: in vivo, Oryza sativa; conditions: Flood, scale 0 to 100, 0 no effect, 100 complete control, 13 to 15 days
In short: (§3)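 Pots were flooded to 3 cm above the soil surface at treatment, compound applied directly to the paddy water, and that depth held throughout. Plants were kept in a greenhouse for 13 to 15 days, then visually rated against untreated controls.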

[4] = test system: giant foxtail; assay: Test A pre-/postemergence greenhouse test; format: in vivo, Setaria faberi; conditions: for Plant response rating, Foxtail, Giant: 0 to 100 scale where 0 is no effect and 100 is complete control; for Foxtail, Giant plant response rating: 0 to 100 scale
In short: as §1

[5] = test system: morningglory; assay: Test A pre-/postemergence greenhouse test; format: in vivo, Ipomoea spp.; conditions: for Plant response rating, Morningglory: 0 to 100 scale where 0 is no effect and 100 is complete control; for Morningglory plant response rating: 0 to 100 scale
In short: as §1

[6] = test system: lambsquarters; assay: Test C pre-/postemergence test; format: in vivo, Chenopodium album
In short: as §2

[7] = test system: Goosegrass; assay: Test C pre-/postemergence test; format: in vivo, Eleusin indica
In short: as §2

[8] = test system: umbrella sedge; assay: Test C flooded paddy test; format: in vivo, Cyperus difformis; conditions: Flood, 250 g ai/ha; scale 0 to 100, 0 no effect, 100 complete control; 13 to 15 days
In short: as §3

[9] = test system: wheat; assay: Test C pre-/postemergence test; format: in vivo, Triticum aestivum
In short: as §2

[10] = test system: barnyardgrass; assay: Test A pre-/postemergence greenhouse test; format: in vivo, Echinochloa crus-galli; conditions: for Plant response rating, Barnyardgrass: 0 to 100 scale where 0 is no effect and 100 is complete control; for Barnyardgrass plant response rating: 0 to 100 scale
In short: as §1

[11] = test system: wheat; assay: Test A pre-/postemergence greenhouse test; format: in vivo, Triticum aestivum; conditions: for Plant response rating, Wheat: 0 to 100 scale where 0 is no effect and 100 is complete control; for Wheat plant response rating: 0 to 100 scale
In short: as §1

[12] = test system: Surinam grass; assay: Test C pre-/postemergence test; format: in vivo, Brachiaria decumbens
In short: as §2

[13] = test system: crabgrass; assay: Test C pre-/postemergence test; format: in vivo, Digitaria sanguinalis
In short: as §2

[14] = test system: eastern black nightshade; assay: Test C pre-/postemergence test; format: in vivo, Solanum ptycanthum
In short: as §2

[15] = test system: bermudagrass; assay: Test C pre-/postemergence test; format: in vivo, Cynodon dactylon
In short: as §2

[16] = test system: redroot pigweed; assay: Test A pre-/postemergence greenhouse test; format: in vivo, Amaranthus retroflexus; conditions: for Plant response rating, Pigweed: 0 to 100 scale where 0 is no effect and 100 is complete control; for Pigweed plant response rating: 0 to 100 scale
In short: as §1

[17] = test system: common (oilseed) sunflower; assay: Test C pre-/postemergence test; format: in vivo, Helianthus annuus
In short: as §2

[18] = Postemergence, 500 g ai/ha, 0 is no effect, 100 is complete control
[19] = Preemergence, 125 g ai/ha, 0 no effect, 100 complete control
[20] = 62 g ai/ha, Preemergence, scale 0 to 100
[21] = 125 g ai/ha, preemergence, scale 0 (no effect) to 100 (complete control)
[22] = Postemergence, 125 g ai/ha, scale 0 to 100, 0 no effect, 100 complete control
[23] = Postemergence, 250 g ai/ha, scale 0 to 100, 0 no effect, 100 complete control
[24] = Preemergence, 31 g ai/ha, scale 0 to 100 (0 no effect, 100 complete control)
[25] = preemergence, 250 g ai/ha, scale 0 (no effect) to 100 (complete control)
[26] = Postemergence, 62 g ai/ha, scale 0 to 100, 0 no effect, 100 complete control

SMILES: [O-][n+]1cc(Cl)ccc1[S+]([O-])Cc1c(C(F)(F)F)nn(CC(F)(F)F)c1Cl (stereo not shown) [Compound 47]
- Plant response rating, Corn ([1]; Postemergence, 125 g ai/ha): 50
- Corn plant response rating [1, 18]: 70
- Corn plant response rating [1, 19]: 50
- Plant response rating, Corn ([1]; Preemergence, 500 g ai/ha): 90
- Pigweed plant response rating [2, 20]: 100
- Pigweed plant response rating [2, 21]: 100
- Plant response rating (0 to 100), Pigweed ([2]; Postemergence, 31 g ai/ha): 0
- Plant response rating (0 to 100), Pigweed ([2]; Postemergence, 62 g ai/ha): 0
- Plant response rating, Pigweed [2, 22]: 0
- Plant response rating, Pigweed [2, 23]: 45
- Plant response rating, Pigweed [2, 24]: 70
- Pigweed plant response rating [2, 25]: 100
- Plant response rating, Rice ([3]; 62 g ai/ha): 55
- Plant response rating, Rice ([3]; 250 g ai/ha): 65
- Plant response rating, Foxtail, Giant ([4]; Postemergence, 125 g ai/ha): 80
- Foxtail, Giant plant response rating [4, 18]: 90
- Foxtail, Giant plant response rating [4, 19]: 100
- Plant response rating, Foxtail, Giant ([4]; Preemergence, 500 g ai/ha): 100
- Plant response rating, Morningglory ([5]; Postemergence, 125 g ai/ha): 60
- Morningglory plant response rating [5, 18]: 90
- Morningglory plant response rating [5, 19]: 60
- Plant response rating, Morningglory ([5]; Preemergence, 500 g ai/ha): 80
- Lambsquarters plant response rating [6, 20]: 100
- Lambsquarters plant response rating [6, 21]: 100
- Plant response rating (0 to 100), Lambsquarters ([6]; Postemergence, 31 g ai/ha): 0
- Plant response rating, Lambsquarters [6, 26]: 0
- Plant response rating, Lambsquarters [6, 22]: 0
- Plant response rating, Lambsquarters [6, 23]: 50
- Plant response rating, Lambsquarters [6, 24]: 100
- Lambsquarters plant response rating [6, 25]: 100
- Goosegrass plant response rating [7, 20]: 100
- Goosegrass plant response rating [7, 21]: 100
- Plant response rating (0 to 100), Goosegrass ([7]; Postemergence, 31 g ai/ha): 0
- Plant response rating, Goosegrass [7, 26]: 0
- Plant response rating, Goosegrass [7, 22]: 0
- Plant response rating, Goosegrass [7, 23]: 60
- Plant response rating, Goosegrass [7, 24]: 98
- Goosegrass plant response rating [7, 25]: 100
- Plant response rating, Sedge, Umbrella [8]: 100
- Wheat plant response rating [9, 20]: 10
- Wheat plant response rating [9, 21]: 60
- Plant response rating (0 to 100), Wheat ([9]; Postemergence, 31 g ai/ha): 0
- Plant response rating (0 to 100), Wheat ([9]; Postemergence, 62 g ai/ha): 0
- Plant response rating, Wheat [9, 22]: 10
- Plant response rating, Wheat [9, 23]: 50
- Plant response rating, Wheat [9, 24]: 0
- Wheat plant response rating [9, 25]: 85
- Plant response rating, Barnyardgrass ([10]; Postemergence, 125 g ai/ha): 80
- Barnyardgrass plant response rating [10, 18]: 90
- Barnyardgrass plant response rating [10, 19]: 90
- Plant response rating, Barnyardgrass ([10]; Preemergence, 500 g ai/ha): 100
- Plant response rating, Wheat ([11]; Postemergence, 125 g ai/ha): 50
- Wheat plant response rating [11, 18]: 60
- Wheat plant response rating [11, 19]: 60
- Plant response rating, Wheat ([11]; Preemergence, 500 g ai/ha): 90
- Surinam Grass plant response rating [12, 20]: 80
- Surinam Grass plant response rating [12, 21]: 100
- Plant response rating (0 to 100), Surinam Grass ([12]; Postemergence, 31 g ai/ha): 0
- Plant response rating (0 to 100), Surinam Grass ([12]; Postemergence, 62 g ai/ha): 0
- Plant response rating, Surinam Grass [12, 22]: 0
- Plant response rating, Surinam Grass [12, 23]: 60
- Plant response rating, Surinam Grass [12, 24]: 50
- Surinam Grass plant response rating [12, 25]: 100
- Crabgrass, Large plant response rating [13, 20]: 100
- Crabgrass, Large plant response rating [13, 21]: 100
- Plant response rating (0 to 100), Crabgrass, Large ([13]; Postemergence, 31 g ai/ha): 0
- Plant response rating, Crabgrass, Large [13, 26]: 0
- Plant response rating, Crabgrass, Large [13, 22]: 0
- Plant response rating, Crabgrass, Large [13, 23]: 30
- Plant response rating, Crabgrass, Large [13, 24]: 98
- Crabgrass, Large plant response rating [13, 25]: 100
- Nightshade plant response rating [14, 20]: 85
- Nightshade plant response rating [14, 21]: 90
- Plant response rating, Nightshade [14, 24]: 0
- Nightshade plant response rating [14, 25]: 100
- Bermudagrass plant response rating ([15]; 62 g ai/ha, Preemergence, scale 0 to 100 (0 no effect, 100 complete control)): 100
- Bermudagrass plant response rating [15, 21]: 100
- Plant response rating (0 to 100), Bermudagrass ([15]; Postemergence, 31 g ai/ha): 0
- Plant response rating, Bermudagrass [15, 26]: 0
- Plant response rating, Bermudagrass [15, 22]: 0
- Plant response rating, Bermudagrass [15, 23]: 0
- Plant response rating, Bermudagrass [15, 24]: 80
- Bermudagrass plant response rating [15, 25]: 100
- Plant response rating, Pigweed ([16]; Postemergence, 125 g ai/ha): 60
- Pigweed plant response rating [16, 18]: 80
- Pigweed plant response rating [16, 19]: 100
- Plant response rating, Pigweed ([16]; Preemergence, 500 g ai/ha): 100
- Sunflower plant response rating [17, 20]: 0
- Sunflower plant response rating [17, 21]: 0
- Plant response rating, Sunflower [17, 24]: 0
- Sunflower plant response rating [17, 25]: 0
